# Source: patent publication US20100056526A1, “HETEROMONOCYCLIC COMPOUND AND USE THEREOF” (Takeda Pharmaceutical Company Limited, priority 2006, published 2010)
# Legend:
# human AT1 receptor = target: T1, human AT1 receptor (Homo sapiens, UniProt P30556); test: Binding assay using human AT1 receptor-expressing CHO-K1 cell membrane fraction ([125I]-angiotensin II); settings: 22.5 pM [125I]-angiotensin II, 9 μg AT1 membrane, 1 hr room temperature; read-out: AT1 receptor binding inhibitory action (IC50 (nM))
# T1 construct: expressed in transfected cells; host or cells: CHO-K1
# T1 sequence (P30556 1-359): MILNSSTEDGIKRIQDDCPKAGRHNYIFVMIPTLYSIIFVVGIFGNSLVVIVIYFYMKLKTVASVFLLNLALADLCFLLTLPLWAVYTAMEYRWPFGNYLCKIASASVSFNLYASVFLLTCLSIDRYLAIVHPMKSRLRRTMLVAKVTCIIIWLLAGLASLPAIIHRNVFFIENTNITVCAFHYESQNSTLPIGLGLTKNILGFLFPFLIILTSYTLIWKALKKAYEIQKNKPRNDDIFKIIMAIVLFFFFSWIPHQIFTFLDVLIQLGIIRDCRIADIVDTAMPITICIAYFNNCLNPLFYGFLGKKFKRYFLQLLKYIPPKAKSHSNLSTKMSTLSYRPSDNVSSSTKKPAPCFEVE
# In short: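 CHO-K1 membranes stably expressing AT1 (9 μg) incubated with 22.5 pM [125I]-angiotensin II and compound in 50 mM Tris pH 7.4, 10 mM MgCl2, with or without 0.3 mg/mL fatty acid-free BSA, 1 hr at room temperature. Bound radioactivity counted after GF/C filtration; nonspecific binding with 1 μM CV-11974; IC50 calculated.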
# PPARγ = target: T2, PPARγ (Homo sapiens, UniProt P37231); test: Evaluation of PPARγ activating action (luciferase reporter in PPARγ:RXRα:4ERPP/CHO-K1 cells); format: cell-based; settings: CHO-K1, 24 h; test compound 10^−6 M; luciferase activity relative to control compound X (1 μM) = 100%, non-administration group = 0%; read-out: PPARγ activating action (activation % (10^−6 M))
# T2 construct: expressed in transfected cells; host or cells: CHO-K1
# T2 sequence (P37231 1-477 isoform P37231-2): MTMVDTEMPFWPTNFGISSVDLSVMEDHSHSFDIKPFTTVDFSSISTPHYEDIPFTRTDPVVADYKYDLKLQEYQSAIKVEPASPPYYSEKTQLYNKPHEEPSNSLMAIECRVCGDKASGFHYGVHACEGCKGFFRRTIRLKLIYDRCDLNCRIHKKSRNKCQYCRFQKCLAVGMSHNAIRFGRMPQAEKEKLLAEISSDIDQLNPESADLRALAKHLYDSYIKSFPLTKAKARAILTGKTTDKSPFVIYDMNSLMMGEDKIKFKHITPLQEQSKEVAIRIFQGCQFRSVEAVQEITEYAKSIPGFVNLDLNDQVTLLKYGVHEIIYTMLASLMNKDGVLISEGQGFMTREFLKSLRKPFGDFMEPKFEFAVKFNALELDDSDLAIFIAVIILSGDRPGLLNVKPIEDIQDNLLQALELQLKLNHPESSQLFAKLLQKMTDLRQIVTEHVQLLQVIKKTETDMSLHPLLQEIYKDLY
# T2 sequence (P19793 1-462 partner): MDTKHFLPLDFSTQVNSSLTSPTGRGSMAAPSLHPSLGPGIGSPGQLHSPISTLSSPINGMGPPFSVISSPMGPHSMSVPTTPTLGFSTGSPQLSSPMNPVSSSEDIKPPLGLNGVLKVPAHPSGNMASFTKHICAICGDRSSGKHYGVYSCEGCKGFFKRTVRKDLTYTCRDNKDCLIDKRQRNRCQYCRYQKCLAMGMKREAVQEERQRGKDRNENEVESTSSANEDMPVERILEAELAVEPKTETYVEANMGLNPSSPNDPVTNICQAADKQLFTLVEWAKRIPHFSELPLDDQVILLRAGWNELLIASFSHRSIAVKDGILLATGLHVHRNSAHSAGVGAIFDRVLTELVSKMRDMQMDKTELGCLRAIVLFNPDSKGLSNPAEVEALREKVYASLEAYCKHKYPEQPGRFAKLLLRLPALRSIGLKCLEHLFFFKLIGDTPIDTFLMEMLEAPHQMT
# In short: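 CHO-K1 cells stably carrying PPARγ, RXRα and a 4ERPP luciferase reporter were treated with compound for 1 day at 37 °C in F12 medium with 0.1% fatty acid-free BSA. Luciferase activity was read and scaled between no compound (0%) and reference agonist compound X at 1 μM (100%).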
SMILES,IC50 (human AT1 receptor) [nM],activation at 1 µM (PPARγ) [%]
"CCCc1nc(CC)n(-c2ccc(OC3(CO)CCC3)cc2)c(=O)c1Cc1ccc(-c2ccccc2-c2noc(=O)[nH]2)cc1 [Example 419, 2-ethyl-3-(4-{[1-(hydroxymethyl)cyclobutyl]oxy}phenyl)-5-{[2′-(5-oxo-4,5-dihydro-1,2,4-oxadiazol-3-yl)biphenyl-4-yl]methyl}-6-propylpyrimidin-4(3H)-one]",1.3,27.2
"CCCc1nc(CC)c(CN2CCOCC2)c(=O)n1Cc1ccc(-c2ccccc2-c2noc(=O)[nH]2)cc1 [Example 455, 6-ethyl-5-(morpholin-4-ylmethyl)-3-{[2′-(5-oxo-4,5-dihydro-1,2,4-oxadiazol-3-yl)biphenyl-4-yl]methyl}-2-propylpyrimidin-4(3H)-one]",2,16
"CCCc1nc(OC)n(-c2ccc(O[C@@H]3C[C@@H](C)O[C@@H](C)C3)cc2)c(=O)c1Cc1ccc(-c2ccccc2-c2noc(=O)[nH]2)cc1 [Example 388, 3-(4-{[(2R,4s,6S)-2,6-dimethyltetrahydro-2H-pyran-4-yl]oxy}phenyl)-2-methoxy-5-{-[2′-(5-oxo-4.,5-dihydro-1,2,4-oxadiazol-3-yl)biphenyl-4-yl]methyl}-6-propylpyrimidin-4(3H)-one]",1.6,34.4
"CCCc1nc(CC)c(-c2ccc(OC(F)(F)F)cc2)c(=O)n1Cc1ccc(-c2ccccc2-c2noc(O)n2)cc1 [Example 457, 6-ethyl-3-{[2′-(5-oxo-4,5-dihydro-1,2,4-oxadiazol-3-yl)biphenyl-4-yl]methyl}-2-propyl-5-[4-(trifluoromethoxy)phenyl]pyrimidin-4(3H)-one]",3.5,36
"CCCCc1nc(C)n(Cc2ccccn2)c(=O)c1Cc1ccc(-c2ccccc2-c2noc(=O)[nH]2)cc1 [Example 50, 6-butyl-2-methyl-5-{[2′-(5-oxo-4,5-dihydro-1,2,4-oxadiazol-3-yl)biphenyl-4-yl]methyl}-3-(pyridin-2-ylmethyl)pyrimidin-4(3H)-one]",1.7,34.3
"CCCc1nc(C)n(C=C(C)C)c(=O)c1Cc1ccc(-c2ccccc2-c2noc(=O)[nH]2)cc1 [Example 323, 2-methyl-3-(2-methylprop-1-en-1-yl)-5-{[2′-(5-oxo-4,5-dihydro-1,2,4-oxadiazol-3-yl)biphenyl-4-yl]methyl}-6-propylpyrimidin-4(3H)-one]",2.1,20
"CCCc1nc(C)n(-c2ccc3c(c2)CCC(C)(C)O3)c(=O)c1Cc1ccc(-c2ccccc2-c2noc(=O)[nH]2)cc1 [Example 131, 3-(2,2-dimethyl-3,4-dihydro-2H-chromen-6-yl)-2-methyl-5-{[2′-(5-oxo-4,5-dihydro-1,2,4-oxadiazol-3-yl)biphenyl-4-yl]methyl}-6-propylpyrimidin-4(3H)-one]",2.2,34.2
"CCCc1nc(C)c(CC2CCCCO2)c(=O)n1Cc1ccc(-c2ccccc2-c2noc(=O)[nH]2)cc1 (stereo not drawn) [Example 7, 6-methyl-3-{[2′-(5-oxo-4,5-dihydro-1,2,4-oxadiazol-3-yl)biphenyl-4-yl]methyl}-2-propyl-5-(tetrahydro-2H-pyran-2-ylmethyl)pyrimidin-4(3H)-one]",1.4,42.6
"CCCc1nc(CC)n(-c2ccc(OC3CCC[C@H]3O)cc2)c(=O)c1Cc1ccc(-c2ccccc2-c2noc(=O)[nH]2)cc1 (stereo partly drawn) [Example 381, 2-ethyl-3-(4-{[(2R)-2-hydroxycyclopentyl]oxy}phenyl)-5-{[2′-(5-oxo-4,5-dihydro-1,2,4-oxadiazol-3-yl)biphenyl-4-yl]methyl}-6-propylpyrimidin-4(3H)-one]",1.2,28.2
"CCCc1nc(C)c(Cc2ccccc2)c(=O)n1Cc1ccc(-c2ccccc2-c2noc(=O)[nH]2)cc1 [Example 287, 5-benzyl-6-methyl-3-{[2′-(5-oxo-4,5-dihydro-1,2,4-oxadiazol-3-yl)biphenyl-4-yl]methyl}-2-propylpyrimidin-4(3H)-one]",1.8,40.9
"CCCc1nc(CC)n(-c2ccc(OC3CCOCC3)nc2)c(=O)c1Cc1ccc(-c2ccccc2-c2noc(=O)[nH]2)cc1 [Example 406, 2-ethyl-5-{[2′-(5-oxo-4,5-dihydro-1,2,4-oxadiazol-3-yl)biphenyl-4-yl]methyl}-6-propyl-3-[6-(tetrahydro-2H-pyran-4-yloxy)pyridin-3-yl]pyrimidin-4(3H)-one]",1.5,41.9

# Continued, values first:
IC50 (human AT1 receptor) [nM],activation at 1 µM (PPARγ) [%],SMILES
1.8,25.3,"CCCc1nc(CC)n(-c2cccc(C(C)(C)O)c2)c(=O)c1Cc1ccc(-c2ccccc2-c2noc(=O)[nH]2)cc1 [Example 365, 2-ethyl-3-[3-(1-hydroxy-1-methylethyl)phenyl]-5-{[2′-(5-oxo-4,5-dihydro-1,2,4-oxadiazol-3-yl)biphenyl-4-yl]methyl}-6-propylpyrimidin-4(3H)-one]"
1.5,22.7,"CCCc1nc(C)n(-c2ccc3c(c2)C(O)CC(C)(C)O3)c(=O)c1Cc1ccc(-c2ccccc2-c2noc(=O)[nH]2)cc1 (stereo not drawn) [Example 144, 3-(4-hydroxy-2,2-dimethyl-3,4-dihydro-2H-chromen-6-yl)-2-methyl-5-{[2′-(5-oxo-4,5-dihydro-1,2,4-oxadiazol-3-yl)biphenyl-4-yl]methyl}-6-propylpyrimidin-4(3H)-one]"
1.7,52.1,"CCCCc1nc(C2CC2)n(-c2ccc3c(c2)CCO3)c(=O)c1Cc1ccc(-c2ccccc2-c2noc(=O)[nH]2)cc1 [Example 112, 6-butyl-2-cyclopropyl-3-(2,3-dihydro-1-benzofuran-5-yl)-5-{[2′-(5-oxo-4,5-dihydro-1,2,4-oxadiazol-3-yl)biphenyl-4-yl]methyl}pyrimidin-4(3H)-one]"
1.2,27.2,"CCCc1nc(CC)n(-c2ccc(OC3CCCC3=O)cc2)c(=O)c1Cc1ccc(-c2ccccc2-c2noc(=O)[nH]2)cc1 (stereo not drawn) [Example 382, 2-ethyl-3-{4-[(2-oxocyclopentyl)oxy]phenyl}-5-{[2′-(5-oxo-4,5-dihydro-1,2,4-oxadiazol-3-yl)biphenyl-4-yl]methyl}-6-propylpyrimidin-4(3H)-one]"
1.8,30,"CCCc1nc(CC)c(-c2ccc(OC)cc2)c(=O)n1Cc1ccc(-c2ccccc2-c2noc(O)n2)cc1 [Example 456, 6-ethyl-5-(4-methoxyphenyl)-3-{[2′-(5-oxo-4,5-dihydro-1,2,4-oxadiazol-3-yl)biphenyl-4-yl]methyl}-2-propylpyrimidin-4(3H)-one]"
2.5,57.1,"CCSc1nc(C)c(Cc2ccccc2)c(=O)n1Cc1ccc(-c2ccccc2-c2noc(=O)[nH]2)cc1 [Example 3, 5-benzyl-2-(ethylthio)-6-methyl-3-{[2′-(5-oxo-4,5-dihydro-1,2,4-oxadiazol-3-yl)biphenyl-4-yl]methyl}pyrimidin-4(3H)-one]"
1.8,23.7,"CCCc1nc(C)c(-c2ccc(OC(C)C)cc2)c(=O)n1Cc1ccc(-c2ccccc2-c2noc(O)n2)cc1F [Example 450, 3-{[3-fluoro-2′-(5-oxo-4,5-dihydro-1,2,4-oxadiazol-3-yl)biphenyl-4-yl]methyl}-5-(4-isopropoxyphenyl)-6-methyl-2-propylpyrimidin-4(3H)-one]"
